Patent US20260184707A1, “PHARMACEUTICAL COMPOUNDS FOR THE TREATMENT OF COMPLEMENT MEDIATED DISORDERS” (ALEXION PHARMACEUTICALS, INC., priority 2022, published 2026)

Molecular target: T1, Human complement C1s enzyme (Homo sapiens, UniProt P09871)
T1 construct: purified from human serum, Complement Technology, Inc; purchased Complement Technology, Inc; host or cells: human serum (plasma-derived native protein)
T1 sequence (P09871 438-688 limits assumed): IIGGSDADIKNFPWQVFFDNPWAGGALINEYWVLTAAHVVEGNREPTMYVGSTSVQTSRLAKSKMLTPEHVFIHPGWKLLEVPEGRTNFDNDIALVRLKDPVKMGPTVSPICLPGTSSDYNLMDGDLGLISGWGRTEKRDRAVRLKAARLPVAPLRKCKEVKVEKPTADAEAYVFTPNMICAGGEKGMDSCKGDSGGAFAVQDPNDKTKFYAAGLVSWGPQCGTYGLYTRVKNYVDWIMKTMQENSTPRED
T1 sequence (P09871 16-437 partner limits assumed): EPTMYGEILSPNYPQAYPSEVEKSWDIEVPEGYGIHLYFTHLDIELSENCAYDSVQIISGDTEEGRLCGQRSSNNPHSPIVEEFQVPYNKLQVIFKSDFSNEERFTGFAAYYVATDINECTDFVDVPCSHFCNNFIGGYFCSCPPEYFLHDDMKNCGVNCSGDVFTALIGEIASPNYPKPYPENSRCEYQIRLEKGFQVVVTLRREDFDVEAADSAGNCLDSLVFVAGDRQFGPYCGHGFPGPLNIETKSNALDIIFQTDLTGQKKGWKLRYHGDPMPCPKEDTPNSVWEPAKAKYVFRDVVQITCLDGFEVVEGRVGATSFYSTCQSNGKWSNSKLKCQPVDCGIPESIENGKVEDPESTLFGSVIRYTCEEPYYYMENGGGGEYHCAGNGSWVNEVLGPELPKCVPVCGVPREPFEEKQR
Assay: Human C1s enzyme assay
Format: biochemical
Conditions: human complement C1s enzyme 1.16 nM, substrate Z-L-Lys-SBzl, A405; read-out: IC50 (Stars)
How it was run: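 Thioesterase activity followed colorimetrically (DTNB, A405, 30-s reads) using 100 μM Z-L-Lys-SBzl substrate. Enzyme, human serum-derived C1s at 1.16 nM final, was incubated with test compound for 5 min, room temperature, pH 7.5 Tris buffer with 1 M NaCl. Rate-versus-concentration data fitted by nonlinear regression for IC50.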

IC50 [µM]	SMILES
< 0.1	O=C(Cn1c(-c2ccccc2)ncc(NCc2ccc3c(c2)C(F)(F)c2ccccc2-3)c1=O)NCc1cc2cnccc2[nH]1 [Compound 112, N-((1H-pyrrolo[3,2-c]pyridin-2-yl)methyl)-2-(5-(((9,9-difluoro-9H-fluoren-2-yl)meth-yl)amino)-6-oxo-2-phenyl-pyrimidin-1(6H)-yl)acetamide]
< 0.1	O=C(Cn1c(-c2ccccc2)ncc(NCCCc2cc3ccc2CCc2ccc(cc2)CC3)c1=O)NCc1cc2cnccc2[nH]1 [Compound 113, 2-(5-((3-(1,4(1,4)-dibenzenacyclohexaphane-1^2-yl)propyl)amino)-6-oxo-2-phenylpyrimidin-1(6H)-yl)-N-((1H-pyrrolo[3,2-c]pyridine-2-yl)methyl)acetamide]
< 0.1	CS(=O)(=NC#N)c1ccc(-c2ncc(NCCCc3ccccc3)c(=O)n2CC(=O)NCc2cc3cnccc3[nH]2)cc1 (centres unmarked) [Compound 114, N-((1H-pyrrolo[3,2-c]pyridine-2-yl)methyl)-2-(2-(4-(N-cyano-S-methylsulfonimidoyl)phenyl)-6-oxo-5-((3-phenylpropyl)amino)pyrimidin-1(6H)-yl)acetamide]
< 0.1	COc1cc(C(=O)Nc2cnc(-c3ccccc3)n(CC(=O)NCc3cc4cnccc4[nH]3)c2=O)ccc1-c1ccccc1 [Compound 115, N-(1-(2-(((1H-pyrrolo[3,2-c]pyridin-2-yl)methyl)amino)-2-oxoethyl)-6-oxo-2-phenyl-1,6-dihydropyrimidin-5-yl)-2-methoxy-[1,1′-biphenyl]-4-carboxamide]
< 0.1	O=C(Cn1c(-c2ccccc2)ncc(NCCCc2ccc(C3(F)COC3)cc2)c1=O)NCc1cc2cnccc2[nH]1 [Compound 116, N-((1H-pyrrolo[3,2-c]pyridine-2-yl)methyl)-2-(5-((3-(4-(3-fluorooxetan-3-yl)phenyl)propyl)amino)-6-oxo-2-phenylpyrimidin-1(6H)-yl)acetamide]
< 0.1	O=C(Cn1c(-c2cccc(F)c2)ncc(NCc2ccc3oc4ccccc4c3c2)c1=O)NCc1cc2cnccc2[nH]1 [Compound 117, N-((1H-pyrrolo[3,2-c]pyridin-2-yl)methyl)-2-(5-((dibenzo [b,d]furan-2-ylmethyl)amino)-2-(3-fluorophenyl)-6-oxopyr-imidin-1(6H)-yl)acetamide]
< 0.1	O=C(Cn1c(-c2ccc(Cl)cc2)ncc(NCc2ccc3oc4ccccc4c3c2)c1=O)NCc1cc2cnccc2[nH]1 [Compound 118, N-((1H-pyrrolo[3,2-c]pyridin-2-yl)methyl)-2-(2-(4-chloro-phenyl)-5-((dibenzo[b,d]furan-2-ylmethyl)amino)-6-oxopyr-imidin-1(6H)-yl)acetamide]

The next lines start with the compound.

SMILES	IC50 [µM]
O=C(Cn1c(-c2ccc(S(F)(F)(F)(F)F)cc2)ncc(NCCCc2ccccc2)c1=O)NCc1cc2cnccc2[nH]1 [Compound 96, N-((1H-pyrrolo[3,2-c]pyridine-2-yl)methyl)-2-(6-oxo-2-(4-(pentafluoro-λ^6-sulfanyl)phenyl)-5-((3-phenylpropyl)amino)pyrimidin-1(6H)-yl)acetamide]	< 0.1
O=C(Cn1c(-c2ccccc2)ncc(NC(=O)c2ccc3oc4ccccc4c3c2)c1=O)NCc1cc2cnccc2[nH]1 [Compound 97, N-(1-(2-(((1H-pyrrolo[3,2-c]pyridin-2-yl)methyl)amino)-2-oxoethyl)-6-oxo-2-phenyl-1,6-dihydropyrimidin-5-yl)dibenzo [b,d]furan-2-carboxamide]	< 0.1
COc1ccc(-c2ccc(C(=O)Nc3cnc(-c4ccccc4)n(CC(=O)NCc4cc5cnccc5[nH]4)c3=O)cc2)cc1 [Compound 98, N-(1-(2-(((1H-pyrrolo[3,2-c]pyridin-2-yl)methyl)amino)-2-oxoethyl)-6-oxo-2-phenyl-1,6-dihydropyrimidin-5-yl)-4′-methoxy-[1,1′-biphenyl]-4-carboxamide]	< 0.1
O=C(Cn1c(-c2ccccc2)ncc(NC(=O)c2ccc(-c3ccc(F)cc3)cc2)c1=O)NCc1cc2cnccc2[nH]1 [Compound 99, N-(1-(2-(((1H-pyrrolo[3,2-c]pyridin-2-yl)methyl)amino)-2-oxoethyl)-6-oxo-2-phenyl-1,6-dihydropyrimidin-5-yl)-4′-fluoro-[1,1′-biphenyl]-4-carboxamide]	< 0.1
O=C(Cn1c(-c2ccccc2)cnc(NC(=O)c2ccc(-c3ccccc3)cc2)c1=O)NCc1cc2cnccc2[nH]1 [Compound 100, N-(4-(2-(((1H-pyrrolo[3,2-c]pyridin-2-yl)methyl)amino)-2-oxoethyl)-3-oxo-5-phenyl-3,4-dihydropyrazin-2-yl)-[1,1′-biphenyl]-4-carboxamide]	< 0.1
O=C(Cn1c(-c2ccccc2)cnc(NC(=O)c2ccc3oc4ccccc4c3c2)c1=O)NCc1cc2cnccc2[nH]1 [Compound 101, N-(4-(2-(((1H-pyrrolo[3,2-c]pyridin-2-yl)methyl)amino)-2-oxoethyl)-3-oxo-5-phenyl-3,4-dihydropyrazin-2-yl)dibenzo [b,d]furan-2-carboxamide]	< 0.1
O=C(Cn1c(-c2ccccc2)ncc(NC(=O)c2cccc(-c3ccco3)c2)c1=O)NCc1cc2cnccc2[nH]1 [Compound 102, N-(1-(2-(((1H-pyrrolo[3,2-c]pyridin-2-yl)methyl)amino)-2-oxoethyl)-6-oxo-2-phenyl-1,6-dihydropyrimidin-5-yl)-3-(furan-2-yl)benzamide]	< 0.1
O=C(Cn1c(-c2ccccc2)ncc(NCCCc2ccc(OC3COC3)cc2)c1=O)NCc1cc2cnccc2[nH]1 [Compound 103, N-((1H-pyrrolo[3,2-c]pyridine-2-yl)methyl)-2-(5-((3-(4-(oxetan-3-yl-oxy)phenyl)propyl)amino)-6-oxo-2-phenylpyrimidin-1(6H)-yl)acetamide]	< 0.1
O=C(Cn1c(-c2ccccc2)ncc(NCCCc2ccc(S(F)(F)(F)(F)F)cc2)c1=O)NCc1cc2cnccc2[nH]1 [Compound 104, N-((1H-pyrrolo[3,2-c]pyridin-2-yl)methyl)-2-(6-oxo-5-((3-(4-(pentafluoro-lambda6-sulfaneyl)phenyl)propyl)-amino)-2-phenylpyrimidin-1(6H)-yl)acetamide]	< 0.1
CS(=N)(=O)c1ccc(CCCNc2cnc(-c3ccccc3)n(CC(=O)NCc3cc4cnccc4[nH]3)c2=O)cc1 (centres unmarked) [Compound 105, N-((1H-pyrrolo[3,2-c]pyridine-2-yl)methyl)-2-(5-((3-(4-(S-methylsulfonimidoyl)phenyl)propyl)amino)-6-oxo-2-phenylpyrimidin-1(6H)-yl) acetamide]	< 0.1
O=C(Cn1c(-c2ccccc2)ncc(NC(=O)c2cnc(-c3ccccc3)s2)c1=O)NCc1cc2cnccc2[nH]1 [Compound 106, N-(1-(2-(((1H-pyrrolo[3,2-c]pyridin-2-yl)methyl)amino)-2-oxoethyl)-6-oxo-2-phenyl-1,6-dihydropyrimidin-5-yl)-2-phenylthiazole-5-carboxamide]	< 0.1
O=C(Cn1c(-c2ccccc2)ncc(NC(=O)c2cnc(-c3ccccc3)o2)c1=O)NCc1cc2cnccc2[nH]1 [Compound 107, N-(1-(2-(((1H-pyrrolo[3,2-c]pyridin-2-yl)methyl)amino)-2-oxoethyl)-6-oxo-2-phenyl-1,6-dihydropyrimidin-5-yl)-2-phenyloxazole-5-carboxamide]	< 0.1
O=C(Cn1c(-c2ccccc2)ncc(NC(=O)c2ccc(-c3ncco3)cc2)c1=O)NCc1cc2cnccc2[nH]1 [Compound 108, N-(1-(2-(((1H-pyrrolo[3,2-c]pyridin-2-yl)methyl)amino)-2-oxoethyl)-6-oxo-2-phenyl-1,6-dihydropyrimidin-5-yl)-4-(oxazol-2-yl)benzamide]	< 0.1
COc1ccc(-c2cc(C(=O)Nc3cnc(-c4ccccc4)n(CC(=O)NCc4cc5cnccc5[nH]4)c3=O)on2)cc1 [Compound 109, N-(1-(2-(((1H-pyrrolo[3,2-c]pyridin-2-yl)methyl)amino)-2-oxoethyl)-6-oxo-2-phenyl-1,6-dihydropyrimidin-5-yl)-3-(4-methoxyphenyl)isoxazole-5-carboxamide]	< 0.1
O=C(Cn1c(-c2ccccc2)ncc(NC(=O)c2ccc(-c3ccccc3)s2)c1=O)NCc1cc2cnccc2[nH]1 [Compound 110, N-(1-(2-(((1H-pyrrolo[3,2-c]pyridin-2-yl)methyl)amino)-2-oxoethyl)-6-oxo-2-phenyl-1,6-dihydropyrimidin-5-yl)-5-phenylthiophene-2-carbox-amide]	< 0.1
O=C(Cn1c(-c2ccccc2)ncc(NC(=O)c2coc(-c3ccccc3)n2)c1=O)NCc1cc2cnccc2[nH]1 [Compound 111, N-(1-(2-(((1H-pyrrolo[3,2-c]pyridin-2-yl)methyl)amino)-2-oxoethyl)-6-oxo-2-phenyl-1,6-dihydropyrimidin-5-yl)-2-phenyloxazole-4-carboxamide]	< 0.1
